Assay results from paper PMC13453949 (Journal of Advanced Research, 2025).
Converted amounts (≈) assume the structure as drawn. “Also recorded” adds a separate entry of the source. Read-outs that look alike come from different tables or passages of the source.

Key:
C. albicans [1] = assay: microbe, parasite or virus in culture; format: cell-based, Candida albicans; details: for MIC: Candida albicans, read-out: Minimum inhibitory concentration (MIC); for Fungal recovery after treatment: after 36 h of treatment
C. albicans [2] = format: cell-based, Candida albicans; details: α-hederin 32 μg/mL; vs untreated control (CK)
C. albicans biofilm = assay: Biofilm formation, total biofilm biomass by crystal violet staining; format: cell-based; details: Candida albicans, 24 h, read-out: Inhibition of early biofilm formation
[3] = test system: C. albicans mature biofilm; assay: Mature biofilm, metabolic activity by XTT reduction; format: cell-based; details: Candida albicans, 24 h, read-out: Inhibition rate of mature biofilms
[4] = test system: C. albicans hyphal formation; format: cell-based, Candida albicans; details: RPMI-1640 + 10 % FBS, 24 h
[5] = test system: ergosterol content in C. albicans; assay: Ergosterol content determination; format: cell-based, Candida albicans; details: 16 μL/mL, compared to untreated control (CK)
C. albicans [6] = assay: Checkerboard dilution, fractional inhibitory concentration index; format: cell-based, Candida albicans
C. albicans [7] = assay: Murine oral candidiasis model; format: in vivo, BALB/c mice; details: for Hemoglobin (HGB) level / Platelet (PLT) counts / White blood cell count (WBC): relative to Can group
293 T cells = details: 24 h; for Cell survival rate: 128 μg/mL (highest tested)
Raw264.7 cells = details: 24 h; for Cell survival rate: 128 μg/mL (highest tested)
[8] = test system: KB (human oral epidermoid carcinoma cells); details: 24 h; for Cell survival rate: 128 μg/mL (highest tested)
C. albicans [9] = assay: Antifungal activity test of the 17 candidate compounds against C. albicans; format: cell-based, Candida albicans; details: tested at 12 h, 24 h and 36 h
[10] = test system: C. albicans cell surface hydrophobicity; format: cell-based, Candida albicans; details: 128 μg/mL
[11] = threshold concentration 1024 μg/mL

## OC(Cn1cncn1)(Cn1cncn1)c1ccc(F)cc1F [Fluconazole, reference compound]
C. albicans [1]; 128 μg/mL, after 24 h
  Fungal growth at highest concentration: persistent fungal growth
C. albicans [1]
  MIC: > 128 µg/mL
  Fungal recovery after treatment: regrowth
C. albicans [2]
  Internal ultrastructure (TEM): no comparable ultrastructural damage
C. albicans biofilm
  inhibition at 256 µg/mL: 57%
[3]
  inhibition at 128 µg/mL: 17%
[4]; 256 μg/mL
  Hyphal formation: failed to achieve complete suppression
[4]
  Concentration reducing hyphal formation: > 32 µg/mL
[5]
  Reduction of ergosterol content: 45%
C. albicans [6]
  Concentration in the combination showing additive effect: 1 µg/mL
C. albicans [7]; 128 μg/mL
  Hemoglobin (HGB) level: restored
  Platelet (PLT) counts: normalized
  White blood cell count (WBC): restored
C. albicans [7]; mouse, in vivo
  Body weight change: rebound in body weight
293 T cells
  Cell survival rate: above 80%
Raw264.7 cells
  Cell survival rate: above 80%
[8]
  Cell survival rate: above 80%

## CC(C)=CCC[C@](C)(O[C@@H]1O[C@H](CO[C@@H]2O[C@@H](CO)[C@H](O)[C@H]2O[C@@H]2OC[C@@H](O)[C@H](O)[C@H]2O)[C@@H](O)[C@H](O)[C@H]1O)[C@H]1CC[C@]2(C)[C@@H]1[C@H](O)C[C@@H]1[C@@]3(C)CC[C@H](O[C@@H]4O[C@H](CO)[C@@H](O)[C@H](O)[C@H]4O[C@@H]4O[C@H](CO)[C@@H](O)[C@H](O)[C@H]4O)C(C)(C)[C@@H]3CC[C@]12C [Ginsenoside Ra2]
C. albicans [9]; [11]
  Anti − C. albicans activity: >1024 µg/mL

## C[C@]12CCC[C@@]3(COC1=O)[C@@H]1CC[C@@H]4C[C@@]1(CC[C@@H]32)C[C@@]4(C)O [Hypodiolide A]
C. albicans [9]; [11]
  Anti − C. albicans activity: >1024 µg/mL

## C=C(C)C(O)COc1c2occc2cc2ccc(=O)oc12 (centres unmarked) [Isogosferol]
C. albicans [9]; [11]
  Anti − C. albicans activity: >1024 µg/mL

## COc1cc2ccc(=O)oc2cc1O [Scopoletol]
C. albicans [9]; [11]
  Anti − C. albicans activity: >1024 µg/mL

## Oc1ccc2ccccc2c1N=Nc1ccc(N=Nc2ccccc2)cc1 [Sudam Ⅲ]
C. albicans [9]; [11]
  Anti − C. albicans activity: >1024 µg/mL

## C[C@@H]1O[C@@H](O[C@H]2[C@H](O[C@H]3CC[C@@]4(C)[C@@H](CC[C@]5(C)[C@@H]4CC=C4[C@@H]6CC(C)(C)CC[C@]6(C(=O)O)CC[C@]45C)[C@]3(C)CO)OC[C@H](O)[C@@H]2O)[C@H](O)[C@H](O)[C@H]1O [α-Hederin]
C. albicans [9]; [11]
  Anti − C. albicans activity: below 128 μg/mL
C. albicans [1]; 32 μg/mL
  C. albicans growth: completely inhibited
C. albicans [1]
  MIC: 32 µg/mL (≈ 42.6 µM)
  Fungal recovery after treatment: no fungal recovery observed
C. albicans [1]; at concentrations above 8 μg/mL within 24 h
  Growth inhibition of C. albicans: 50%
C. albicans [2]
  Internal ultrastructure (TEM): severe cytoplasmic content loss and vacuolization, thinning and irregularity of cell walls/membranes and membrane discontinuities
C. albicans biofilm
  inhibition at 32 µg/mL: 55%
  inhibition at 256 µg/mL: 75%
[3]
  inhibition at 128 µg/mL: 20%
[4]; 128 μg/mL
  Hyphal formation: partial inhibition
[4]; 256 μg/mL
  Hyphal formation: completely inhibit
[10]
  Reduction of cell surface hydrophobicity (CSH): 85%
[5]
  Reduction of ergosterol content: 90%
C. albicans [6]; checkerboard, fluconazole plus α-hederin
  Concentration in the combination showing additive effect: 16 µg/mL
C. albicans [7]; 32 μg/mL
  Hemoglobin (HGB) level: restored
  Platelet (PLT) counts: normalized
  White blood cell count (WBC): restored
C. albicans [7]; 128 μg/mL in drinking water, 5 days (128Hed)
  C. albicans colony count on tongue: no colonies were detected
C. albicans [7]; 128 μg/mL
  Hemoglobin (HGB) level: restored
  Platelet (PLT) counts: normalized
  White blood cell count (WBC): restored
C. albicans [7]; mouse, in vivo
  Body weight change: rebound in body weight; also recorded: slowest initial weight loss, followed by a consistent increase
  Fungal colonization of tongue (PAS staining): markedly reduced fungal colonization
C. albicans [7]; α-hederin-treated group, dose not stated
  Fungal load on tongue (colony counts): significant decrease in fungal load
293 T cells
  Cell survival rate: above 80%
Raw264.7 cells
  Cell survival rate: above 80%
[8]
  Cell survival rate: above 80%

## Elemicin
C. albicans [9]
  Anti − C. albicans activity: <128 μL/mL
C. albicans [9]; [11]
  Anti − C. albicans activity: below 128 μg/mL
C. albicans [1]; C. albicans CMCC(F)98001, YEPD, 37 °C, 24 h and 36 h
  Minimum inhibitory concentration (MIC): 16 μL/mL
C. albicans [1]; at concentrations exceeding 0.5 μL/mL
  Inhibition of C. albicans growth: 50 % −70
293 T cells
  Concentration with significant toxicity: higher than 8 μL/mL
Raw264.7 cells
  Concentration with significant toxicity: higher than 8 μL/mL
[8]
  Concentration with significant toxicity: higher than 8 μL/mL

## Evodiamine
C. albicans [9]; [11]
  Anti − C. albicans activity: >1024 µg/mL

## Strictosamide
C. albicans [9]; [11]
  Anti − C. albicans activity: >1024 µg/mL

## Triptofordin
C. albicans [9]; [11]
  Anti − C. albicans activity: >1024 µg/mL
